# Laboratory results taken from patent US20140286906A1, “USE OF IGF-1 IN THE MODULATION OF TREG CELL ACTIVITY AND THE TREATMENT AND PREVENTION OF AUTOIMMUNE DISORDERS OR DISEASES” (priority 2011, published 2014).
# Experiments:
# [1] = test system: FOXP3 positive cells (CD25+ splenic cells); assay: Foxp3 and Ki67 flow cytometric analysis of Treg proliferation; assay type: cell-based, murine
# Description: To determine the effect of IGF-1 in the regulatory subset in vitro (cf. FIG. 4) the number of FOXP3 positive cells is determined by flow cytometric analysis. To analyze other subsets, like the proinflammatory Th1 and Th17 subsets, a similar approach is used but the number of interferon-gamma (Th1) and IL-17 (Th17) positive cells is determined. Additionally, to evaluate the number of proliferating cells at a given moment cells are stained using the intracellular marker Ki67, which is expressed only in cycling cells. The combination of a specific lineage marker (e.g., Foxp3, IFN-g, IL-17) with Ki67 allows for the determination at a given moment of the cells belonging to a certain subset and their proliferative status.
# In animal experiments, the population is isolated normally from murine spleen (but also could be isolated from other tissues, like for example but not restricted to bone marrow, adipose tissue, cord blood derived mononuclear cell, thymus, or peripheral blood) and is sorted using different markers (e.g., CD4 and CD25). This population is defined as CD4+CD25+ and includes the regulatory cells. This population is then treated in the above-mentioned medium in the presence of IGF-1. After several days of culture part of the cells are counted, fixed, permeabilized and analyzed by flow cytometry using an anti-FOXP3 antibody in combination with the same extracellular markers (CD4 and CD25). This allows for the determination of the absolute number of FOXP3 positive cells present in the culture.
# To further define the proliferative effects of IGF-1, FACS-sorted CD25+ splenic cells (>98% purity) after two days in culture with recombinant IGF-1 were fixed, permeabilized and stained with antibodies against FOXP3 and Ki67. Foxp3 is a transcription factor that orchestrates the cellular and molecular programs involved in T regulatory function. Ki67 is a nuclear antigen present in proliferating cells. […] After three days of culture the number of FOXP3 positive cells was increased four-fold and the number of regulatory T cells proliferating approximately six-fold.
# CD4+CD25+ splenic cells = assay: flow cytometry of activation and homing markers on CD4+CD25+ splenic cells; assay type: cell-based, murine; details: Deguelin 1 μM; Ly-294,002 and PD.98,059 10 μM (FIG. 10)
# From the text: The expression of certain markers on the surface of the cell is correlated with the degree of activation of the cells and also controls their trafficking and localization and consequently the compartmentalization of the immune responses. This is again measured using flow cytometric methods. For example, cells expressing high levels of CD62L preferentially migrate to secondary lymphoid tissues. However, as these cells enter the periphery (for example when they travel to affected tissues during an autoimmune process) they rapidly acquire an activated phenotype and express higher levels of CD44. Thus upregulation of CD44 is associated with a higher proliferation rate. […] The importance of this observation comes from the fact that in order to exert their suppressive properties, Tregs need to migrate to the affected tissues first. Therefore, IGF-1 not only induces activation of proliferation but also promotes their correct localization.
# Finally, the inventors analyzed the ability of IGF-1 to alter the homing properties of the regulatory T cell subset. In 2003, Fisson et al. defined two distinct population of regulatory T cells in homeostatic conditions. In the steady state, some Tregs remain quiescent for long periods of time, whereas the other Treg population divides extensively and express multiple activation markers. […] This pattern of change is also consistent with a more activated phenotype. On one hand, CD44^hiCD62L^lo Treg populations, but not their CD44^loCD62L^hi counterparts, constantly incorporate BrdU, a synthetic analog of thymidine, into newly synthesized DNA in lymphoid tissues (Matsushima and Takashima, 2010). On the other hand, higher levels of CD62L have been associated with a higher capacity of Tregs to migrate to the lymph nodes, while lower levels allows them to migrate to sites of inflammation (Fisson et al., 2003; Bromley et al., 2008). Thus, T regulatory cells expressing lower levels of CD62L would have a higher inflammation-seeking capacity, which has been associated with higher suppressive potential in various inflammation models (Huehn et al., 2005). […] One, IGF-1 is able to activate a complex pathway resulting in Treg activation leading to proliferation and to selective homing and migration to the sites of inflammation. The second conclusion comes from the observation that sequential migration from blood to the target tissue and then to draining lymph nodes is required for nTreg to differentiate and execute fully their suppressive function, by inhibiting dendritic cells in the peripheral tissue and T effector cell responses in dLN and periphery (Zhang et al., 2009). Thus, IGF-1 treatment not only results in higher numbers of T regulatory cells but also in altering the trafficking of these cells to achieve a higher suppressive effect. […]
Structure (SMILES),effect of inhibitor on IGF-1 effect on Treg proliferation ([1]; inhibitor 1 μM),sensitivity of IGF-1 induced CD62L and CD44 changes to pathway inhibitor (CD4+CD25+ splenic cells),effect of inhibitor on IGF-1 effect on Treg proliferation ([1]; inhibitor 10 μM)
"COc1cc2c(cc1OC)[C@@H]1C(=O)c3ccc4c(c3O[C@@H]1CO2)C=CC(C)(C)O4 [Deguelin, reference compound]",partially blocked,more sensitive,–
"COc1cccc(-c2cc(=O)c3ccccc3o2)c1N [PD.98,059, reference compound]",–,–,partially blocked
"O=c1cc(N2CCOCC2)oc2c(-c3ccccc3)cccc12 [Ly-294,002, reference compound]",–,–,sensitive
